Laboratory results: patent publication US5518735A, “Meta-substituted phenylalanine derivatives” (priority 1990, dated 1996)
Where a name gives a salt, the structure may show the parent alone. Blank lines part the entries; values can stand above or below the molecule they belong to.

Legend:
[1] = Plasma concentration in rats after intravenous administration (HPLC); settings: for pharmacokinetic properties: in words, compared with NAPAP
[2] = biological target: factor Xa (Bos taurus, UniProt P00743); assay: Inhibition of factor Xa (dissociation constant Ki); assay type: biochemical; settings: for Ki: Tables 19-25, read-out: Ki, Factor Xa
[3] = Plasma concentration in rats after subcutaneous administration (HPLC); settings: rat
Protocol: (§1) For the pharmacokinetic characterization, the plasma concentration of selected derivatives was determined in rats after intravenous (i.v.), subcutaneous (s.c.) and peroral (p.o.) application according to the following three-step procedure:
(§2) 1. A physiological NaCl solution of the substance to be tested was submitted to high pressure liquid chromatography (HPLC) in order to determine its characteristic substance-specific retention time with the chosen test conditions.
(§3) 2. The substance to be tested was diluted in vitro in rat plasma. This solution was also submitted to HPLC to see whether the characteristic peak of the substance once again appeared at the substance-specific retention time.
(§4) 3. […] Blood samples were taken at time intervals of 15 minutes, from which plasma samples were prepared by centrifugation; those samples were also submitted to HPLC to see whether the characteristic peak of the substance appeared again at the substance-specific retention time.

[4] = in vivo; settings: mouse
[5] = biological target: thrombin (Bos taurus, UniProt P00735); assay: Inhibition of thrombin (dissociation constant Ki); assay type: biochemical
[6] = Plasma concentration in rats after oral administration (HPLC); settings: rat
Protocol: as §1, §2, §3, §4

factor Xa, sequence (P00743 234-492 limits assumed): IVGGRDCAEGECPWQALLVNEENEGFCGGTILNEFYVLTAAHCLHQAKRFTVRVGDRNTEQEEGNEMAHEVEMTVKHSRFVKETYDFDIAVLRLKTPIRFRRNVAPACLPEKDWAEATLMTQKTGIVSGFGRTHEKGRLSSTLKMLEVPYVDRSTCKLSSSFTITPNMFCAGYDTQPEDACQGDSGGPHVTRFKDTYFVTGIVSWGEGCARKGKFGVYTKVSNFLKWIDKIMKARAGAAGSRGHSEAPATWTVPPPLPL
factor Xa, sequence (P00743 41-180 partner limits assumed): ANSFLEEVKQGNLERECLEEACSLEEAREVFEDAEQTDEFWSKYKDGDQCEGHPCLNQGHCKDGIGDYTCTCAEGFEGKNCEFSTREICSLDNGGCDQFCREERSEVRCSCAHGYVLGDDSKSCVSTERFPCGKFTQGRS

Structure (SMILES): NCc1cccc(CC(NS(=O)(=O)c2ccc3ccccc3c2)C(=O)N2CCC(C(=O)O)CC2)c1 (racemic) [Compound 186]
pharmacokinetic properties [1]: improved pharmacokinetic properties | concentration at 2 min ([1]; rat, plasma, iv, 1 mg/kg): 1840 ng/mL | concentration at 5 min ([1]; rat, plasma, iv, 1 mg/kg): 1260 ng/mL | concentration at 10 min ([1]; rat, plasma, iv, 1 mg/kg): 653 ng/mL | concentration at 0.25 h ([1]; rat, plasma, iv, 1 mg/kg): 426 ng/mL | concentration at 0.5 h ([1]; rat, plasma, iv, 1 mg/kg): 225 ng/mL | concentration at 0.75 h ([1]; rat, plasma, iv, 1 mg/kg): 205 ng/mL | concentration at 1 h ([1]; rat, plasma, iv, 1 mg/kg): 193 ng/mL | concentration at 1.5 h ([1]; rat, plasma, iv, 1 mg/kg): 53 ng/mL | concentration at 2 h ([1]; rat, plasma, iv, 1 mg/kg): 228 ng/mL | Ki [2]: 230 µM | concentration at 0.25 h ([3]; plasma, sc, 5 mg/kg): 251 ng/mL | concentration at 0.5 h ([3]; plasma, sc, 5 mg/kg): 368 ng/mL | concentration at 0.75 h ([3]; plasma, sc, 5 mg/kg): 444 ng/mL | concentration at 1 h ([3]; plasma, sc, 5 mg/kg): 558 ng/mL | concentration at 1.5 h ([3]; plasma, sc, 5 mg/kg): 629 ng/mL | concentration at 2 h ([3]; plasma, sc, 5 mg/kg): 534 ng/mL | concentration at 3 h ([3]; plasma, sc, 5 mg/kg): 533 ng/mL | concentration at 4 h ([3]; plasma, sc, 5 mg/kg): 669 ng/mL | concentration at 5 h ([3]; plasma, sc, 5 mg/kg): 455 ng/mL | concentration at 6 h ([3]; plasma, sc, 5 mg/kg): 340 ng/mL | LD50 at 168 h ([4]; iv): 100 mg/kg | LD50 at 168 h ([4]; po): > 3000 mg/kg | Ki [5]: 0.5 µM | concentration at 0.25 h ([6]; plasma, po, 100 mg/kg): 996 ng/mL | concentration at 0.5 h ([6]; plasma, po, 100 mg/kg): 800 ng/mL | concentration at 0.75 h ([6]; plasma, po, 100 mg/kg): 769 ng/mL | concentration at 1 h ([6]; plasma, po, 100 mg/kg): 1250 ng/mL | concentration at 1.5 h ([6]; plasma, po, 100 mg/kg): 877 ng/mL | concentration at 2 h ([6]; plasma, po, 100 mg/kg): 619 ng/mL | concentration at 3 h ([6]; plasma, po, 100 mg/kg): 357 ng/mL | concentration at 4 h ([6]; plasma, po, 100 mg/kg): 328 ng/mL | concentration at 5 h ([6]; plasma, po, 100 mg/kg): 370 ng/mL | concentration at 6 h ([6]; plasma, po, 100 mg/kg): 326 ng/mL

Ki [2]: 720 µM | Ki [5]: 720 µM
Structure (SMILES): Nc1cccc(CC(NS(=O)(=O)c2ccc3ccccc3c2)C(=O)N2CCC(C(=O)O)CC2)c1 (racemic) [Compound 205]

Ki [2]: 48 µM | Ki [5]: 61 µM
Structure (SMILES): N=C(N)c1cccc(CC(NC(=O)CNS(=O)(=O)c2ccc3ccccc3c2)C(=O)N2CCCCC2C(=O)O)c1 (racemic) [Compound 165]

Structure (SMILES): N=C(N)c1cccc(CC(NS(=O)(=O)c2ccc3ccccc3c2)C(=O)N2CCC(C(=O)O)CC2)c1 (racemic) [Compound 85]
concentration at 2 min ([1]; rat, plasma, iv, 1 mg/kg): 2350 ng/mL | concentration at 5 min ([1]; rat, plasma, iv, 1 mg/kg): 1240 ng/mL | concentration at 10 min ([1]; rat, plasma, iv, 1 mg/kg): 526 ng/mL | concentration at 0.25 h ([1]; rat, plasma, iv, 1 mg/kg): 334 ng/mL | concentration at 0.5 h ([1]; rat, plasma, iv, 1 mg/kg): 240 ng/mL | concentration at 0.75 h ([1]; rat, plasma, iv, 1 mg/kg): 176 ng/mL | concentration at 1 h ([1]; rat, plasma, iv, 1 mg/kg): 99 ng/mL | concentration at 1.5 h ([1]; rat, plasma, iv, 1 mg/kg): 52 ng/mL | concentration at 2 h ([1]; rat, plasma, iv, 1 mg/kg): 28 ng/mL | concentration at 4 h ([1]; rat, plasma, iv, 1 mg/kg): 14 ng/mL | concentration at 0.25 h ([3]; plasma, sc, 5 mg/kg): 1330 ng/mL | concentration at 0.5 h ([3]; plasma, sc, 5 mg/kg): 1030 ng/mL | concentration at 0.75 h ([3]; plasma, sc, 5 mg/kg): 860 ng/mL | concentration at 1 h ([3]; plasma, sc, 5 mg/kg): 834 ng/mL | concentration at 1.5 h ([3]; plasma, sc, 5 mg/kg): 913 ng/mL | concentration at 2 h ([3]; plasma, sc, 5 mg/kg): 977 ng/mL | concentration at 3 h ([3]; plasma, sc, 5 mg/kg): 815 ng/mL | concentration at 4 h ([3]; plasma, sc, 5 mg/kg): 676 ng/mL | concentration at 5 h ([3]; plasma, sc, 5 mg/kg): 550 ng/mL | LD50 at 168 h ([4]; iv): 43 mg/kg | LD50 at 168 h ([4]; po): > 3000 mg/kg | Concentration in plasma ([6]; oral 100 mg/kg, 240 min): 0 ng/mL | concentration at 0.25 h ([6]; plasma, po, 100 mg/kg): 870 ng/mL | concentration at 0.5 h ([6]; plasma, po, 100 mg/kg): 541 ng/mL | concentration at 0.75 h ([6]; plasma, po, 100 mg/kg): 345 ng/mL | concentration at 1 h ([6]; plasma, po, 100 mg/kg): 120 ng/mL | concentration at 2 h ([6]; plasma, po, 100 mg/kg): 103 ng/mL | concentration at 3 h ([6]; plasma, po, 100 mg/kg): 104 ng/mL

Ki [2]: 450 µM | Ki [5]: 130 µM
Structure (SMILES): Nc1cccc(CC(NS(=O)(=O)c2ccc3ccccc3c2)C(=O)N2CCCCC2C(=O)O)c1 (racemic) [Compound 204]

Ki [2]: 54 µM | Ki [5]: 0.12 µM
Structure (SMILES): N=C(N)c1cccc(CC(NS(=O)(=O)c2ccc3ccccc3c2)C(=O)N2CC3CCCCC3CC2C(=O)O)c1 (racemic) [Compound 151, N-α-(2-Naphthylsulfonyl)-3-amidino-(D,L)-phenylalanyl-decahydroisoquinoline-3-carboxylic acid hydrochloride]

Ki [2]: > 1000 µM | Ki [5]: 2.8 µM
Structure (SMILES): CC1CCN(C(=O)C(Cc2cccc(C(=N)NO)c2)NS(=O)(=O)c2ccc3ccccc3c2)CC1 (racemic) [Compound 187, N-α-(2-Naphthylsulfonyl)-3-oxamidino-(D,L)-phenylalanine-4-methylpiperidide hydroiodide]

Ki [2]: 74 µM | Ki [5]: 0.13 µM
Structure (SMILES): CC1CCCCN1C(=O)C(Cc1cccc(C(=N)N)c1)NS(=O)(=O)c1ccc2ccccc2c1 (racemic) [Compound 32]

Ki [2]: 410 µM | Ki [5]: 330 µM
Structure (SMILES): N=C(NO)c1cccc(CC(NS(=O)(=O)c2ccc3ccccc3c2)C(=O)N2CCCCC2C(=O)O)c1 (racemic) [Compound 188, N-α-(2-Naphthylsulfonyl)-3-oxamidino-(D,L)-phenylalanyl-(D,L)-pipecolic acid hydroiodide]

Ki [2]: 38 µM | Ki [5]: 0.88 µM
Structure (SMILES): COC(=O)CNC(=O)C1CCCCN1C(=O)C(Cc1cccc(C(=N)N)c1)NS(=O)(=O)c1ccc2ccccc2c1 (racemic) [Compound 117, N-α-(2-Naphthylsulfonyl-3-amidino-(D,L)-phenylalanyl-(D,L)-pipecolyl-glycine-methyl ester hydrochloride]

pharmacokinetic properties [1]: excellent pharmacokinetic properties | inhibition of factor Xa ([2]; in words): does not selectively inhibit factor Xa | inhibition of thrombin ([5]; in words): surprisingly inhibits thrombin | detection / concentration in plasma or absorption after oral administration ([6]; oral): absorbed by the intestine
Structure (SMILES): N=C(N)c1cccc(C[C@H](NS(=O)(=O)c2ccc3ccccc3c2)C(=O)N2CCC[C@H]2C(=O)O)c1 [Nα-2-naphthylsulfonyl-3-amidinophenylalanyl proline]
blood level after subcutaneous administration ([3]; s.c.): a relatively high blood level is reached which is maintained in an anticoagulantly effective concentration for a prolonged period of time

Ki [2]: 110 µM | Ki [5]: 1.3 µM
Structure (SMILES): N=C(N)c1cccc(CC(NS(=O)(=O)c2ccc3ccccc3c2)C(=O)N2CCCCC2C(=O)NCC(=O)O)c1 (racemic) [Compound 116, N-α-(2-Naphthylsulfonyl)-3-amidino-(D,L)-phenylalanyl-(D,L)-pipecolyl-glycine hydrochloride]

Ki [2]: 380 µM | Ki [5]: 16 µM
Structure (SMILES): N=C(N)c1cccc(CC(NS(=O)(=O)c2cccc3cccnc23)C(=O)N2CCCCC2C(=O)O)c1 (racemic) [Compound 180]

Ki [2]: 260 µM | Ki [5]: 127 µM
Structure (SMILES): N=C(N)c1cccc(CC(NS(=O)(=O)c2cccc3cccnc23)C(=O)N2CCC(C(=O)O)CC2)c1 (racemic) [Compound 181]

Structure (SMILES): N=C(N)Nc1cccc(CC(NS(=O)(=O)c2ccc3ccccc3c2)C(=O)N2CCCCC2C(=O)O)c1 (racemic) [Compound 208, N-α-(2-Naphthylsulfonyl)-3-guanidino-(D,L)-phenylalanine-(D,L)-pipecolic acid hydrochloride]
Ki [2]: 82 µM | LD50 at 168 h ([4]; iv): > 50 mg/kg | LD50 at 168 h ([4]; po): > 1000 mg/kg | Ki [5]: 29 µM

Ki [2]: 140 µM | Ki [5]: 50 µM
Structure (SMILES): NCc1cccc(CC(NS(=O)(=O)c2ccc3ccccc3c2)C(=O)N2CCCCC2C(=O)O)c1 (racemic) [Compound 185, N-α-(2-Naphthylsulfonyl)-3-aminomethyl-(D,L)-phenylalanyl-(D,L)-pipecolic acid]

Ki [2]: 97 µM | Ki [5]: 46 µM
Structure (SMILES): N=C(N)c1cccc(CC(NC(=O)CNS(=O)(=O)c2ccc3ccccc3c2)C(=O)N2CCC(C(=O)O)CC2)c1 (racemic) [Compound 166]

Ki [2]: 670 µM | Ki [5]: 270 µM
Structure (SMILES): N=C(NO)c1cccc(CC(NS(=O)(=O)c2ccc3ccccc3c2)C(=O)N2CCC(C(=O)O)CC2)c1 (racemic) [Compound 189, N-α-(2-Naphthylsulfonyl)-3-oxamidino-(D,L)-phenylalanyl-isonipecotic acid hydroiodide]
